Bridge positions count the residues as written; N and C are the ends. Ends that are not written are not given here. I, II: the chains in the order shown.
Experiments:
[1] = test system: rhinovirus A1; assay type: cell-based
[2] = test system: H1N1 virus; experiment: Viral attachment assay, H1N1 on MDCK cells; assay type: cell-based, influenza H1N1 virus
Method: Viruses (H1N1 or rhinovirus A1) were treated with DMEM, 4H30 (25 µg mL^−1), or an influenza neutralization antibody at room temperature for 30 min and then added to cells for attachment at 4°C for 1 h. After washing the unbound virus, the attached virus on cells was measured by RT-qPCR. At least two experiments with biological duplication samples were included for each treatment.
MDCK cells were treated by ChABC (Sigma, Cat^# C2905, 1 U mL^−1), Hase I–III (Sigma, Cat^# H3917, 100 mU mL^−1), and Hase II (Sigma, Cat^# H6515, 100 mU mL^−1) at 37°C for 2 h in the buffer according to the manufacturer’s instruction. After washing cells with PBS, MEM or 4H30 (25 µg mL^−1) was added to cells for 30 min incubation, and then cells were washed with PBS. H1N1 (MOI = 1.0) was added to cells for attachment at 4°C for 1 h. The unbound virus was washed with PBS. The concentration of the attached virus was measured by RT-qPCR.

[3] = test system: NA; experiment: ELISA binding assay, NA; parameters: species or system influenza virus; details: 4H30 1 µg coated, NA 100 ng, anti-His antibody, Fig. 2a
Method: (§1) Peptides (1.0 µg per well) were dissolved in H2O. Influenza HA, NA (Sino, Cat^# 11058-V07B), or LDLR (Sino, Cat^# 10231-H081-50, 100 ng) dissolved in PBS was coated onto ELISA plates, incubated at 4°C overnight, and blocked with BSA at 4°C overnight. HA or VP1 was added to wells for binding and then determined by incubation with goat anti-His-HRP (Invitrogen, Cat^# R93125, 1: 2,000) at 37°C for 30 min. The reaction was developed by adding 100 µL of the TMB single solution (Life Technologies, Cat^# 002023) for 15 min at 37°C and stopped with 50 µL of 1 M H2SO4. Readings were obtained in an ELISA plate reader (Victor 1420 Multilabel Counter; PerkinElmer) at 450 nm.

[4] = test system: H1N1 virus; experiment: Plaque reduction assay, H1N1 in MDCK cells; assay type: cell-based, influenza A/Hong Kong/415742/2009 (H1N1); details: virus treated with 4H30 50 µg mL^−1, then diluted to 0.05 µg mL^−1 for plaque assay, Fig. 1e
Method: The antiviral activity of peptides was measured by plaque reduction assay. Briefly, peptides were dissolved in PBS or 20% PBS. Peptides (0.2-25.0 µg mL^−1) were premixed with H1N1 virus at room temperature. After 30 min of incubation, the peptide-virus mixture was transferred to MDCK cells for infection at 37°C. At 1 hpi, infectious media were removed, and then 1% low melting agar was added to cells. Cells were fixed using 4% formalin at 2–3 dpi. […] (0.1%) was added to cells for cell staining to count viral plaques.

[5] = test system: rhinovirus A16; experiment: Rhinovirus A16 in H1-Hela cells; assay type: cell-based; details: 4H30 25 μg mL^−1, viral RNA copies in cells at 16 hpi, Fig. S6b
Method: Fig. S6. […] H1-Hela cells are the standard cell model for efficient Rhinovirus A16 (RV-A16) replication. RV-A1 (a) or RV-A16 (b) was treated with 4H30 (25 μg mL^−1) for one hour of infection and then the infectious media were replaced with MEM with 4H30 for viral culture. Viral RNA copies in cells were measured at 16 hpi. Virus in MEM was the control. No viral infection was the mock control. Data are presented as mean ± SD of indicated biological samples.

[6] = target: Influenza HA (Influenza A virus, UniProt C3W5S1); experiment: ELISA binding assay, HA; details: 4H30 1 µg coated, HA 100 ng, anti-His antibody, Fig. 2a
Sequence of Influenza HA (C3W5S1 entry or part of it, added parts left off): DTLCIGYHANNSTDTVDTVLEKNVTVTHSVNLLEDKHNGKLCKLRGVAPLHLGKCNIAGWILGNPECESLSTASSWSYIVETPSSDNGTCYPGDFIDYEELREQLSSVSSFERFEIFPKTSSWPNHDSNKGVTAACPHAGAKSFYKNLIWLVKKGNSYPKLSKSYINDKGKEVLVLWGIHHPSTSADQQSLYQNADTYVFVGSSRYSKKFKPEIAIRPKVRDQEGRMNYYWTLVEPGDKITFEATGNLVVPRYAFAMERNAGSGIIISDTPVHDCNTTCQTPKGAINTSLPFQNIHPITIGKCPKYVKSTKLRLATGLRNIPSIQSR
Method: as §1

[7] = test system: rhinovirus A1; experiment: Anti-rhinovirus assay in nasal organoids; assay type: cell-based; details: 4H30 25 µg mL^−1; viral loads in supernatants at 24, 48 and 72 hpi; RT-qPCR; Fig. 5b
Method: Organoid culture was established according to previous studies ([28], [29]). When the cells differentiated into mature 2D airway organoids within 12–14 days, the 2D organoids were ready for antiviral experiments. Rhinovirus (5000 TCID50) was mixed with peptide (25 µg mL^−1) or without peptides in culture media for organoid infection. After 2 h infection, we removed the infectious media and added fresh media with or without peptides. The supernatants were collected at 2 hpi, 24 hpi, 48 hpi, and 72 hpi to measure the viral loads by RT-qPCR.
Fig 5 4H30 inhibited rhinovirus replication in nasal organoids and cardiomyocytes. (a) Rhinovirus A1 could not replicate efficiently in mice. Rhinovirus (1 × 10^7 TCID50) was intranasally inoculated to mice. Viral RNAs were measured on day 1, day 2, and day 3 post-infection. […] (c) Rhinovirus A1 (0.01 MOI) could effectively replicate in cardiomyocytes. […] Viral RNAs in the cell supernatants were measured by RT-qPCR at the indicated time points. Data are presented as mean ± SD of indicated biological samples.

[8] = test system: H1N1 virus; assay type: cell-based, influenza H1N1 virus
[9] = test system: H1N1 virus; assay type: cell-based, influenza H1N1 virus; remark: listed apart in the source
[10] = mouse, in vivo; cited from earlier work
[11] = test system: MDCK cells; experiment: Cytotoxicity MTT assay in MDCK cells; assay type: cell-based, canine; details: 24 h incubation, Fig. 1f
Method: Cytotoxicity of peptides was determined by detecting 50% cytotoxic concentration (CC50) using a tetrazolium-based colorimetric MTT assay ([27]). Cells were seeded in a 96-well cell culture plate at an initial density of 4 × 10^4 cells per well in MEM, supplemented with 10% FBS and incubated overnight. Cell culture media were removed, and then MEM supplemented with various concentrations of peptides and 1% FBS was added to each well. After 24 h incubation at 37°C, the MTT solution (5 mg mL^−1, 10 µL per well) was added to each well for incubation at 37°C for 4 h. Then, 100 µL of 10% SDS in 0.01M HCl was added to each well. After further incubation at room temperature with shaking overnight, the plates were read at OD570 using the VictorTM X3 Multilabel Reader (PerkinElmer, USA). Cell culture wells without peptides were used as the experiment control, and the medium was a blank control.

I: GAICHPVFCPRRYKQIGTCGLPGTKCCKKPKK / II: GAICHPVFCPRRYKQIGTCGLPGTKCCKKPK / III: GAICHPVFCPRRYKQIGTCGLPGTKCCKKP / IV: GAICHPVFCPRRYKQIGTCGLPGTKCCKKP (amide I:31-IV:C, I:32-II:C, II:31-III:C; cysteines drawn unpaired) [4H30]
rhinovirus entry [1]: blocked rhinovirus entry on the cell membrane
H1N1 attachment to MDCK cells ([2]; 4H30 25 µg mL^−1, attachment at 4°C, RT-qPCR, Fig. 1d): increased the viral attachment to cells
4H30-induced increase in H1N1 attachment after removal of cellular GAGs ([2]; MDCK cells treated with Hase and ChABC, 4H30 25 µg mL^−1, attachment at 4°C, Fig. 2d): significantly reduced when cells were treated with enzymes of Hase and ChABC
binding to NA [3]: not effectively bound to NA
antiviral activity after treating virus and 1,000-fold dilution [4]: displayed significant antiviral activity against the virus
inhibition of rhinovirus A16 in H1-Hela cells [5]: did not show antiviral activity against rhinovirus A16
binding to HA protein [6]: bound to HA protein
rhinovirus replication in nasal organoids [7]: significantly inhibited rhinovirus replication in nasal organoids
H1N1 entry into cells [8]: prevented viral entry into cells
H1N1 replication, cells treated before and after infection (1h-Pre, 1h-Post) [9]: did not show significant antiviral activity when cells were treated before and after viral infection
H1N1 replication, virus treated before infection [9]: inhibited viral replication when the virus was treated with 4H30 before viral infection
toxicity in mice [10]: without causing apparent toxicity
cytotoxicity in MDCK cells [11]: did not show noticeable toxicity in MDCK cells
